Data: US20230037448A1, “FLUORINATED QUINOLINE AND QUINOXALINE DERIVATIVES AS DIHYDROOROTATE DEHYDROGENASE (DHODH) INHIBITORS FOR THE TREATMENT OF CANCER, AUTOIMMUNE AND INFLAMMATORY DISEASES” (Janssen Biotech, Inc., priority 2019, published 2023)

Columns and labels:
human DHODH = biological target: T1, human DHODH (Homo sapiens, UniProt Q02127); assay: DHODH Enzymatic Assay; format: biochemical; details: purified human DHODH; DCIP absorbance, end-point mode
T1 construct: purchased Proteros PR-0044
Method: To detect DHODH enzyme activities, dichloroindophenol (DCIP) is added as the final electron acceptor in the assay. DCIP can accept electrons from the reduced coenzyme Q generated in the assay, or from dihydroorotate (DHO) via FMN by binding presumably to the ubiquinone pocket. DCIP solutions are blue, with an intense absorbance around 600 nm, but becomes colorless upon reduction (J. Biol. Chem. (1986) 261, 11386). The assay buffer contained […], pH 7.5, 150 mM NaCl, 0.5 mM EDTA, and 0.1% Triton X-100 in MilliQ water. Substrate consisting of 20 mM DHO, 5 mM CoQ6, and 1 mM DCIP in assay buffer, initiates the reaction. The assay is run in end-point mode by quenching the reaction with the potent DHODH inhibitor brequinar. Absorbance measurements were obtained using the BMG Phera Star plate-reading spectrophotomer. Purified human DHODH was purchased from Proteros (cat. No. PR-0044). Chemicals were purchased from Sigma-Aldrich, Teknova, and Avanti Polar Lipids. Liquid handling was performed using Labcyte Echo and Formulatrix Tempest.

MOLM-13 cells = assay: MOLM-13 Cellular Assay; format: cell-based; details: 72 hours exposure, cell viability by CellTiter-Glo
Method: MOLM-13 cells were obtained from DSMZ and were maintained in RPMI 1640+Glutamax+25 mM HEPES (Invitrogen, catalog number 72400) supplemented with 10% heat inactivated fetal bovine serum (FBS; Invitrogen, catalog number 16140). The day prior to assay set-up, cells were pelleted, resuspended in fresh media, counted, and cells were plated at 0.4×10^6 cell/mL in a T150 flask. On the day of the assay, cells were pelleted, resuspend in fresh media, counted, and seeded at 5,000 cells/well in white opaque 96-well tissue culture treated microplates (Perkin Elmer, catalog number 6005680). Cells were exposed to different concentrations of test compounds at 37° C., 5% CO2 for 72 hours immediately after seeding. Cell viability was acquired on a Perkin Elmer Envision 2104 multilabel reader using the CellTiter-Glo assay (Promega) according to the manufacturer's instructions.

T1 sequence (Q02127 whole entry): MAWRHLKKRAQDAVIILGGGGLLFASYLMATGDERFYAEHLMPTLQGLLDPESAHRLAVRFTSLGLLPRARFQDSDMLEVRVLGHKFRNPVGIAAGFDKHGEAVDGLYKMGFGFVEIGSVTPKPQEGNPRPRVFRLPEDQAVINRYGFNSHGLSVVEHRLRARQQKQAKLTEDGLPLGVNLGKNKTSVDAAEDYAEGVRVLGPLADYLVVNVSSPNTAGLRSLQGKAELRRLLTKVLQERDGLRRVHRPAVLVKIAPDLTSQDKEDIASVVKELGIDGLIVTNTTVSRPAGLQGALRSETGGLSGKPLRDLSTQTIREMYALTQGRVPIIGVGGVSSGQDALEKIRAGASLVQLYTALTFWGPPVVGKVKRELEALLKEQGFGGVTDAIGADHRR

CCn1c(CO)nn(-c2cc3c(C(C)C)cc(-c4c(C(F)(F)F)n[nH]c4C)nc3cc2F)c1=O [Example 3, 4-Ethyl-1-(7-fluoro-4-isopropyl-2-(5-methyl-3-(trifluoromethyl)-1H-pyrazol-4-yl)quinolin-6-yl)-3-(hydroxymethyl)-1H-1,2,4-triazol-5 (4H)-one]
IC50 (human DHODH): 0.58 nM | IC50 (MOLM-13 cells; Homo sapiens, MOLM-13, 72 h): 0.7 nM

CCn1c(CO)nn(-c2cc3c(C(C)C)cc(-c4c(C)cnc(OC)c4C)nc3cc2F)c1=O [Example 4, 4-Ethyl-1-(7-fluoro-4-isopropyl-2-(2-methoxy-3,5-dimethylpyridin-4-yl)quinolin-6-yl)-3-(hydroxymethyl)-1H-1,2,4-triazol-5 (4H)-one]
IC50 (human DHODH): 1.7 nM | IC50 (MOLM-13 cells; Homo sapiens, MOLM-13, 72 h): 8.4 nM

CCn1c(CO)nn(-c2cc3c(C(C)C)cc(-c4c(C)ccnc4OC)nc3cc2F)c1=O [Example 11, 4-Ethyl-2-(7-fluoro-4-isopropyl-2-(2-methoxy-4-methylpyridin-3-yl)quinolin-6-yl)-5-(hydroxymethyl)-2,4-dihydro-3H-1,2,4-triazol-3-one]
IC50 (human DHODH): 32 nM | IC50 (MOLM-13 cells; Homo sapiens, MOLM-13, 72 h): 30 nM

CCn1c(CO)nn(-c2cc3c(C(C)C)cc(-c4c(C)cnc(OC)c4Cl)nc3cc2F)c1=O [Example 7, 1-(2-(3-Chloro-2-methoxy-5-methylpyridin-4-yl)-7-fluoro-4-isopropylquinolin-6-yl)-4-ethyl-3-(hydroxymethyl)-1H-1,2,4-triazol-5 (4H)-one]
IC50 (human DHODH): 1.5 nM | IC50 (MOLM-13 cells; Homo sapiens, MOLM-13, 72 h): 4 nM

CCn1c(CO)nn(-c2cc3c(C(C)C)cc(-c4ccccc4C)[n+]([O-])c3cc2F)c1=O [Example 21, 6-(4-Ethyl-3-(hydroxymethyl)-5-oxo-4,5-dihydro-1H-1,2,4-triazol-1-yl)-7-fluoro-4-isopropyl-2-(o-tolyl)quinoline 1-oxide]
IC50 (human DHODH): 4.6 nM | IC50 (MOLM-13 cells; Homo sapiens, MOLM-13, 72 h): 5 nM

CCn1c(CO)nn(-c2cc3c(C(C)C)cc(-c4ccccc4OC)nc3cc2F)c1=O [Example 1, 4-Ethyl-1-(7-fluoro-4-isopropyl-2-(2-methoxyphenyl)quinolin-6-yl)-3-(hydroxymethyl)-1H-1,2,4-triazol-5 (4H)-one]
IC50 (human DHODH): 3.3 nM | IC50 (MOLM-13 cells; Homo sapiens, MOLM-13, 72 h): 2.6 nM

CCn1c(CO)nn(-c2cc3c(C(C)C)cc(-c4ccccc4C)nc3cc2F)c1=O [Example 9, 4-Ethyl-1-(7-fluoro-4-isopropyl-2-(o-tolyl)quinolin-6-yl)-3-(hydroxymethyl)-1H-1,2,4-triazol-5 (4H)-one]
IC50 (human DHODH): 0.6 nM | IC50 (MOLM-13 cells; Homo sapiens, MOLM-13, 72 h): 0.5 nM

CCn1c(CO)nn(-c2cc3c(C(C)C)nc(-c4c(C)n[nH]c4C(F)(F)F)nc3cc2F)c1=O [Example 34, 4-Ethyl-2-(7-fluoro-4-isopropyl-2-(3-methyl-5-(trifluoromethyl)-1H-pyrazol-4-yl)quinazolin-6-yl)-5-(hydroxymethyl)-2,4-dihydro-3H-1,2,4-triazol-3-one]
IC50 (human DHODH): 5.2 nM | IC50 (MOLM-13 cells; Homo sapiens, MOLM-13, 72 h): 4 nM

Cc1n[nH]c(Cl)c1-c1cc(C(C)C)c2cc(-c3nc(C(C)O)n(C)n3)c(F)cc2n1 (centres unmarked) [Example 31, 1-(3-(2-(5-Chloro-3-methyl-1H-pyrazol-4-yl)-7-fluoro-4-isopropylauinolin-6-yl)-1-methyl-1H-1,2,4-triazol-5-yl)ethan-1-ol]
IC50 (human DHODH): 1.6 nM | IC50 (MOLM-13 cells; Homo sapiens, MOLM-13, 72 h): 0.83 nM

CCn1c(CO)nn(-c2cc3c(C(C)C)cc(-c4c(Cl)n[nH]c4C)nc3cc2F)c1=O [Example 2, 1-(2-(3-Chloro-5-methyl-1H-pyrazol-4-yl)-7-fluoro-4-isopropylauinolin-6-yl)-4-ethyl-3-(hydroxymethyl)-1H-1,2,4-triazol-5 (4H)-one]
IC50 (human DHODH): 0.49 nM | IC50 (MOLM-13 cells; Homo sapiens, MOLM-13, 72 h): 1.7 nM

CCn1c(CO)nn(-c2cc3c(C(C)C)cc(N4CCCC[C@H]4C)nc3cc2F)c1=O [Example 18, (R)-4-Ethyl-2-(7-fluoro-4-isopropyl-2-(2-methylpiperidin-1-yl)quinolin-6-yl)-5-(hydroxymethyl)-2,4-dihydro-3H-1,2,4-triazol-3-one]
IC50 (human DHODH): 2280 nM | IC50 (MOLM-13 cells; Homo sapiens, MOLM-13, 72 h): > 100 nM

CCn1c(CO)nn(-c2cc3c(C(C)C)cc(-c4c(Cl)c(O)nn4C)nc3cc2F)c1=O [Example 25, 2-(2-(4-Chloro-3-hydroxy-1-methyl-1H-pyrazol-5-yl)-7-fluoro-4-isopropylquinolin-6-yl)-4-ethyl-5-(hydroxymethyl)-2,4-dihydro-3H-1,2,4-triazol-3-one]
IC50 (human DHODH): 11 nM | IC50 (MOLM-13 cells; Homo sapiens, MOLM-13, 72 h): 6 nM

CCn1c(CO)nn(-c2cc3c(C(C)C(F)(F)F)cc(-c4ccccc4C)nc3cc2F)c1=O (single isomer, unassigned) [Example 36, (S*)-4-Ethyl-1-(7-fluoro-2-(o-tolyl)-4-(1,1,1-trifluoropropan-2-yl)quinolin-6-yl)-3-(hydroxymethyl)-1H-1,2,4-triazol-5 (4H)-one]
IC50 (human DHODH): 0.32 nM | IC50 (MOLM-13 cells): 0.4 nM

Cc1n[nH]c(Cl)c1-c1cc(C(C)C)c2cc(-c3nc(CO)n(C)n3)c(F)cc2n1 [Example 30, (3-(2-(5-Chloro-3-methyl-1H-pyrazol-4-yl)-7-fluoro-4-isopropylauinolin-6-yl)-1-methyl-1H-1,2,4-triazol-5-yl)methanol]
IC50 (human DHODH): 1.2 nM | IC50 (MOLM-13 cells; Homo sapiens, MOLM-13, 72 h): 2 nM

CCn1c(CO)nn(-c2cc3c(C(C)C)cc(-c4c[nH]nc4C)nc3cc2F)c1=O [Example 16, 4-Ethyl-2-(7-fluoro-4-isopropyl-2-(3-methyl-1H-pyrazol-4-yl)quinolin-6-yl)-5-(hydroxymethyl)-2,4-dihydro-3H-1,2,4-triazol-3-one]
IC50 (human DHODH): 9.4 nM | IC50 (MOLM-13 cells; Homo sapiens, MOLM-13, 72 h): > 30 nM

CCn1c(CO)nn(-c2cc3c(C(C)C(F)(F)F)cc(-c4ccccc4C)nc3cc2F)c1=O (single isomer, unassigned) [Example 37, (R*)-4-Ethyl-1-(7-fluoro-2-(o-tolyl)-4-(1,1,1-trifluoropropan-2-yl)quinolin-6-yl)-3-(hydroxymethyl)-1H-1,2,4-triazol-5 (4H)-one]
IC50 (human DHODH): 5.3 nM | IC50 (MOLM-13 cells): 1 nM

CCn1c(CO)nn(-c2cc3c(C(C)C)cc(-c4c(C)cnc(O)c4C)nc3cc2F)c1=O [Example 19, 4-Ethyl-2-(7-fluoro-2-(2-hydroxy-3,5-dimethylpyridin-4-yl)-4-isopropylauinolin-6-yl)-5-(hydroxymethyl)-2,4-dihydro-3H-1,2,4-triazol-3-one]
IC50 (human DHODH): 12 nM | IC50 (MOLM-13 cells; Homo sapiens, MOLM-13, 72 h): > 100 nM

CCn1c(CO)nn(-c2cc3c(C(C)C)cc(N4CCCC[C@@H]4C)nc3cc2F)c1=O [Example 17, (S)-4-Ethyl-2-(7-fluoro-4-isopropyl-2-(2-methylpiperidin-1-yl)quinolin-6-yl)-5-(hydroxymethyl)-2,4-dihydro-3H-1,2,4-triazol-3-one]
IC50 (human DHODH): 230 nM | IC50 (MOLM-13 cells; Homo sapiens, MOLM-13, 72 h): 40 nM

CCC(CC)Oc1cc(C(C)C)c2cc(-n3nc(CO)n(CC)c3=O)c(F)cc2n1 [Example 5, 4-Ethyl-1-(7-fluoro-4-isopropyl-2-(pentan-3-yloxy)quinolin-6-yl)-3-(hydroxymethyl)-1H-1,2,4-triazol-5 (4H)-one]
IC50 (human DHODH): 332 nM | IC50 (MOLM-13 cells; Homo sapiens, MOLM-13, 72 h): > 100 nM

[2H]C([2H])([2H])c1ccccc1-c1cc(C(C)C)c2cc(-n3nc(CO)n(CC)c3=O)c(F)cc2n1 [Example 38, 4-Ethyl-1-(7-fluoro-4-isopropyl-2-(o-methyl-d3-phenyl)quinolin-6-yl)-3-(hydroxymethyl)-1H-1,2,4-triazol-5 (4H)-one]
IC50 (human DHODH): 1.7 nM

CCn1c(CO)nn(-c2cc3c(C(C)C)cc(-c4c[nH]nc4C4CC4)nc3cc2F)c1=O [Example 15, 1-(2-(3-Cyclopropyl-1H-pyrazol-4-yl)-7-fluoro-4-isopropylquinolin-6-yl)-4-ethyl-3-(hydroxymethyl)-1H-1,2,4-triazol-5 (4H)-one]
IC50 (human DHODH): 13 nM | IC50 (MOLM-13 cells; Homo sapiens, MOLM-13, 72 h): 20 nM
